Test results reported in PubChem BioAssay (NCI).
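Method: 48-hour compound exposure of cells in 96-well plates, five concentrations, linear interpolation of endpoints. GI50 marks 50% less growth. TGI marks complete inhibition of growth.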

Columns and labels:
Assay in all cases: NCI anticancer screen, dose series, 48 h
A498 renal = system: A498 renal
SW-620 colon = system: SW-620 colon
NCI/ADR-RES ovarian = system: NCI/ADR-RES ovarian
A549 NSCLC = system: A549 NSCLC
OVCAR-5 ovarian = system: OVCAR-5 ovarian
NCI-H23 lung = system: NCI-H23 lung
RXF 393 renal = system: RXF 393 renal
K-562 leukemia = system: K-562 leukemia
RPMI-8226 leukemia = system: RPMI-8226 leukemia
SF-268 CNS = system: SF-268 CNS
SNB-19 CNS = system: SNB-19 CNS
UACC-62 melanoma = system: UACC-62 melanoma
SNB-75 CNS = system: SNB-75 CNS
CAKI-1 renal = system: CAKI-1 renal
UACC-257 melanoma = system: UACC-257 melanoma
MDA-MB-435 = system: MDA-MB-435
786-0 renal = system: 786-0 renal
HCC-2998 colon = system: HCC-2998 colon
HOP-62 NSCLC = system: HOP-62 NSCLC
HCT-15 colon = system: HCT-15 colon
SR leukemia = system: SR leukemia
SK-MEL-5 melanoma = system: SK-MEL-5 melanoma
BT-549 breast = system: BT-549 breast
DU-145 prostate = system: DU-145 prostate
HS 578T breast = system: HS 578T breast
MOLT-4 leukemia = system: MOLT-4 leukemia
HOP-92 NSCLC = system: HOP-92 NSCLC
MALME-3M melanoma = system: MALME-3M melanoma
COLO 205 colon = system: COLO 205 colon
CCRF-CEM leukemia = system: CCRF-CEM leukemia
SK-MEL-2 melanoma = system: SK-MEL-2 melanoma
EKVX NSCLC = system: EKVX NSCLC
NCI-H522 lung = system: NCI-H522 lung
OVCAR-4 ovarian = system: OVCAR-4 ovarian
NCI-H460 lung = system: NCI-H460 lung
M14 melanoma = system: M14 melanoma
HCT-116 colon = system: HCT-116 colon
SK-OV-3 ovarian = system: SK-OV-3 ovarian
KM12 colon = system: KM12 colon
ACHN renal = system: ACHN renal
SK-MEL-28 melanoma = system: SK-MEL-28 melanoma
IGROV1 ovarian = system: IGROV1 ovarian
NCI-H226 lung = system: NCI-H226 lung
SF-539 CNS = system: SF-539 CNS
SN12C renal = system: SN12C renal
HT29 colon = system: HT29 colon
MDA-MB-231 breast = system: MDA-MB-231 breast
OVCAR-3 ovarian = system: OVCAR-3 ovarian
MCF7 breast = system: MCF7 breast
UO-31 renal = system: UO-31 renal
T-47D breast = system: T-47D breast
SF-295 CNS = system: SF-295 CNS
OVCAR-8 ovarian = system: OVCAR-8 ovarian
LOX IMVI melanoma = system: LOX IMVI melanoma
U251 CNS = system: U251 CNS
TK-10 renal = system: TK-10 renal
HL-60(TB) leukemia = system: HL-60(TB) leukemia
PC-3 prostate = system: PC-3 prostate

CCO/C=N/C1=C(C#N)C(c2ccc(OC)cc2)c2sc3c(CC)cccc3c2O1 (stereo unspecified)
GI50 (A498 renal): 0.472 µM | TGI (A498 renal): 7.6 µM | GI50 (SW-620 colon): 1.45 µM | TGI (SW-620 colon): 16.4 µM | GI50 (NCI/ADR-RES ovarian): 0.566 µM | TGI (NCI/ADR-RES ovarian): 13.9 µM | GI50 (A549 NSCLC): 2.59 µM | TGI (A549 NSCLC): 34.1 µM | GI50 (OVCAR-5 ovarian): 5.19 µM | TGI (OVCAR-5 ovarian): 18.4 µM | GI50 (NCI-H23 lung): 3.09 µM | TGI (NCI-H23 lung): 16.4 µM | GI50 (RXF 393 renal): 1.72 µM | TGI (RXF 393 renal): 4.83 µM | GI50 (K-562 leukemia): 0.678 µM | TGI (K-562 leukemia): 30.8 µM | GI50 (RPMI-8226 leukemia): 2.74 µM | TGI (RPMI-8226 leukemia): 11.8 µM | GI50 (SF-268 CNS): 7.49 µM | TGI (SF-268 CNS): 29.2 µM | GI50 (SNB-19 CNS): 3.35 µM | TGI (SNB-19 CNS): 15.5 µM | GI50 (UACC-62 melanoma): 1.04 µM | TGI (UACC-62 melanoma): 18.4 µM | GI50 (SNB-75 CNS): 0.366 µM | TGI (SNB-75 CNS): 4.02 µM | GI50 (CAKI-1 renal): 1.9 µM | TGI (CAKI-1 renal): 19.3 µM | GI50 (UACC-257 melanoma): 13.1 µM | TGI (UACC-257 melanoma): 38.2 µM | GI50 (MDA-MB-435): 0.373 µM | TGI (MDA-MB-435): 1.51 µM | GI50 (786-0 renal): 3.06 µM | TGI (786-0 renal): 17.5 µM | GI50 (HCC-2998 colon): 2.01 µM | TGI (HCC-2998 colon): 5.98 µM | GI50 (HOP-62 NSCLC): 5.63 µM | TGI (HOP-62 NSCLC): 22.4 µM | GI50 (HCT-15 colon): 0.92 µM | TGI (HCT-15 colon): 10.4 µM | GI50 (SR leukemia): 0.821 µM | TGI (SR leukemia): 25 µM | GI50 (SK-MEL-5 melanoma): 4.86 µM | TGI (SK-MEL-5 melanoma): 17 µM | GI50 (BT-549 breast): 4.56 µM | TGI (BT-549 breast): 19.4 µM | GI50 (DU-145 prostate): 3.55 µM | TGI (DU-145 prostate): 14.9 µM | GI50 (HS 578T breast): 2.3 µM | TGI (HS 578T breast): 9.55 µM | GI50 (MOLT-4 leukemia): 3.28 µM | TGI (MOLT-4 leukemia): 26.2 µM | GI50 (HOP-92 NSCLC): 1.67 µM | TGI (HOP-92 NSCLC): 16.7 µM | GI50 (MALME-3M melanoma): 10.9 µM | TGI (MALME-3M melanoma): 25 µM | GI50 (COLO 205 colon): 3.52 µM | TGI (COLO 205 colon): 12.9 µM | GI50 (CCRF-CEM leukemia): 1.23 µM | TGI (CCRF-CEM leukemia): 20.8 µM | GI50 (SK-MEL-2 melanoma): 5.76 µM | TGI (SK-MEL-2 melanoma): 22.7 µM | GI50 (EKVX NSCLC): 3.47 µM | TGI (EKVX NSCLC): 17.3 µM | GI50 (NCI-H522 lung): 1.18 µM | TGI (NCI-H522 lung): 6.01 µM | GI50 (OVCAR-4 ovarian): 4.26 µM | TGI (OVCAR-4 ovarian): 16.3 µM | GI50 (NCI-H460 lung): 3.46 µM | TGI (NCI-H460 lung): 12.8 µM | GI50 (M14 melanoma): 1.5 µM | TGI (M14 melanoma): 11.8 µM | GI50 (HCT-116 colon): 1.03 µM | TGI (HCT-116 colon): 11.7 µM | GI50 (SK-OV-3 ovarian): 5.3 µM | TGI (SK-OV-3 ovarian): 20.9 µM | GI50 (KM12 colon): 2.63 µM | TGI (KM12 colon): 21.7 µM | GI50 (ACHN renal): 3.36 µM | TGI (ACHN renal): 17.2 µM | GI50 (SK-MEL-28 melanoma): 7.74 µM | TGI (SK-MEL-28 melanoma): 25 µM | GI50 (IGROV1 ovarian): 1.53 µM | TGI (IGROV1 ovarian): 17.5 µM | GI50 (NCI-H226 lung): 6.65 µM | TGI (NCI-H226 lung): 25.4 µM | GI50 (SF-539 CNS): 1.75 µM | TGI (SF-539 CNS): 4.5 µM | GI50 (SN12C renal): 3.73 µM | TGI (SN12C renal): 18.1 µM | GI50 (HT29 colon): 3.22 µM | TGI (HT29 colon): 11.6 µM | GI50 (MDA-MB-231 breast): 4.05 µM | TGI (MDA-MB-231 breast): 24.1 µM | GI50 (OVCAR-3 ovarian): 3.59 µM | TGI (OVCAR-3 ovarian): 18.1 µM | GI50 (MCF7 breast): 1.25 µM | TGI (MCF7 breast): 13 µM | GI50 (UO-31 renal): 3.29 µM | TGI (UO-31 renal): 16.1 µM | GI50 (T-47D breast): 3.13 µM | TGI (T-47D breast): 15.8 µM | GI50 (SF-295 CNS): 0.475 µM | TGI (SF-295 CNS): 1.96 µM | GI50 (OVCAR-8 ovarian): 3.24 µM | TGI (OVCAR-8 ovarian): 18 µM | GI50 (LOX IMVI melanoma): 2.31 µM | TGI (LOX IMVI melanoma): 14.5 µM | GI50 (U251 CNS): 3.77 µM | TGI (U251 CNS): 16.3 µM | GI50 (TK-10 renal): 9.77 µM | TGI (TK-10 renal): 24.2 µM | GI50 (HL-60(TB) leukemia): 1.92 µM | TGI (HL-60(TB) leukemia): 14.5 µM | GI50 (PC-3 prostate): 1.5 µM | TGI (PC-3 prostate): 12.6 µM
